Marks after values point to notes of the source that are not given here.
Tests used:
[1] = target: RSK3 (Homo sapiens, UniProt Q15349); experiment: Kinase counter-screen, Ki; type: biochemical
Source text: (§1) The ATP concentrations were approximately equal to the Km in all assays.

[2] = target: CDK2/cyclinA (Homo sapiens, UniProt P24941); experiment: Kinase counter-screen, Ki; type: biochemical
Source text: as §1

[3] = Phase I dose-escalation study: safety, DLT, MTD, RP2D; details: in vivo
Source text: Patients aged ≥18 years were eligible for participation if they had noncurable, histologically confirmed metastatic or advanced stage malignant tumors; an ECOG performance status of 0 or 1; adequate renal, hepatic, bone marrow, and cardiac function; and a life expectancy ≥3 months. Patients may have received up to 2 prior lines of chemotherapy for their metastatic disease. Exclusion criteria were known uncontrolled brain metastases; gastrointestinal conditions which could impair absorption of study medication; history or current evidence/risk of retinal vein occlusion or central serous retinopathy; and concurrent therapy with drugs known to be strong inhibitors of CYP1A2, CYP2D6, and CYP3A4 or strong inducers of CYP3A4. All participants provided informed consent prior to initiation of any study procedures.
The present invention presents data from an open-label, multicenter phase I study to assess the safety, pharmacokinetics, and pharmacodynamics of escalating doses of BVD-523 in patients with advanced malignancies.
Patients received BID oral doses until disease progression, unacceptable toxicity, or a clinical observation satisfying another withdrawal criterion. Dose escalations occurred in up to 100% increments in single-patient cohorts until 1 patient experienced a ≥Grade 2 toxicity (excluding alopecia or diarrhea). Cohorts were then expanded to at least 3 patients each and subsequent dose-escalation increments were reduced from up to 100% to a maximum of 50%. When at least 1 patient in a 3-patient cohort experienced a DLT, up to 3 additional patients were treated at this dose level. When more than 1 DLT occurred in ≤6 patients, this dose level was defined as the nontolerated dose and dose escalation was stopped. Intrapatient dose escalation was allowed, provided the patients receiving the highest current dose had been observed for at least 3 weeks and dose-limiting side effects were reported in fewer than 2 of 6 patients assigned to a given dose. Patients experiencing DLTs or unacceptable toxicity had their treatment interrupted until the toxicity returned to ≤Grade 1.
The RP2D could be as high as the MTD and was determined in discussion with the clinical investigators, the medical monitor, and the sponsor. Observations related to pharmacokinetics, pharmacodynamics, and any cumulative toxicity observed after multiple cycles were included in the rationale supporting the RP2D.
The severity of AEs were graded according to the National Cancer Institute Common Terminology Criteria for Adverse Events, Grading Scale, version 4.
Safety evaluations were conducted at baseline, on Days 8, 15, 22, 29, 36, and 43, and, in patients who continued treatment, every 3 weeks or if clinically indicated thereafter. Each evaluation included a physical examination and clinical laboratory studies. Electrocardiograms were repeated if clinically significant and at the discretion of the investigator. The investigators made judgments regarding whether or not AEs were related to study drug and followed up until resolution or stabilization, or the AE was judged to be no longer clinically significant.

[4] = target: P38γ (Homo sapiens, UniProt P53778); experiment: Kinase counter-screen, Ki; type: biochemical; details: apparent Ki
P38γ, sequence (P53778 whole entry): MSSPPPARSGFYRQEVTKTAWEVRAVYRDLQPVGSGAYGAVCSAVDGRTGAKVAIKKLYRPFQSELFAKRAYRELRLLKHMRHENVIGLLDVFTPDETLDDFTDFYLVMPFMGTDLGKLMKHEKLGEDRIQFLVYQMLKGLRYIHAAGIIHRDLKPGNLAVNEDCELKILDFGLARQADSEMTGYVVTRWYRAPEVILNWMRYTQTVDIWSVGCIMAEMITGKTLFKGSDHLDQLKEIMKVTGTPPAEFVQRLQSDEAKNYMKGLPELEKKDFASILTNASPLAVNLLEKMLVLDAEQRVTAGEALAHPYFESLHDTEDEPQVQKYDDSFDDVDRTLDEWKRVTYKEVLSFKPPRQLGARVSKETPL
Source text: as §1

[5] = target: JNK3 (Homo sapiens, UniProt P53779); experiment: Kinase counter-screen, Ki; type: biochemical
JNK3, sequence (P53779 whole entry, species assumed): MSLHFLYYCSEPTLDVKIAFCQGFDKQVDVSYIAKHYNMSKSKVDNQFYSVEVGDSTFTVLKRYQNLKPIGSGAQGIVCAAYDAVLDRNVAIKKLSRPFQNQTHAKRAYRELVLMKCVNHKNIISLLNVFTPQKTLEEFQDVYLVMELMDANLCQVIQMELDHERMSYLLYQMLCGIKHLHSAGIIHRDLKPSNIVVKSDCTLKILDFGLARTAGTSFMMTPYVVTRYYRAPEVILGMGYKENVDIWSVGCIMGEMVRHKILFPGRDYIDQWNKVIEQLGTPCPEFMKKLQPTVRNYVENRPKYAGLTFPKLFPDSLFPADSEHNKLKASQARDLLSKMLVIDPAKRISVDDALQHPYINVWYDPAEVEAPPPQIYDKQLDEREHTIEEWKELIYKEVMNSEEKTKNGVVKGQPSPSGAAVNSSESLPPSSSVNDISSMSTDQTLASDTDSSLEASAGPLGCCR
Source text: as §1

[6] = test system: A375 xenografts; experiment: A375 xenografts, BVD-523 in combination with dabrafenib; type: in vivo, mice; details: 100 mg/kg BID
Source text: For measurement of antitumor activity in A375 xenografts, xenografts were initiated with A375 cells maintained by serial subcutaneous transplantation in female athymic nude mice. Each test mouse received an A375 tumor fragment (1 mm^3) implanted subcutaneously in the right flank. Once tumors reached target size (80-120 mm^3), animals were randomized into treatment and control groups, and drug treatment was initiated.
Combination dosing was stopped on Day 20 to monitor for tumor regrowth. Animals were monitored individually and euthanized when each tumor reached an endpoint volume of 2000 mm^3, or the final day (Day 45), whichever came first, and median time to endpoint (TTE) calculated. The combination was also evaluated in an upstaged A375 model where larger tumors in the range 228-1008 mm^3 were evaluated. Here, mice were randomized into 1 group (Group 1) of 14 and 4 groups (Groups 2-5) of 20. […] Tumors were measured twice weekly. Combination dosing was stopped on Day 42 to monitor for tumor regrowth through study end (Day 60). Treatment outcome was determined from % TGD, defined as the percent increase in median TTE for treated versus control mice, with differences between groups analyzed via log rank survival analysis. […] Mice were also monitored for CR and PR responses. Animals with a CR at the end of the study were additionally classified as TFS.

[7] = test system: ERK1/2 phosphorylation in Colo205 xenografts; experiment: pERK1/2 in Colo205 xenograft tumors (ITIS mass spectrometry, IHC); type: in vivo, mice; details: single 100 mg/kg oral dose
Procedure: For measurement of ERK1/2 Isotope-Tagged Internal Standard (ITIS) Mass Spectrometry in Colo205 Xenografts, frozen tumors were lysed in 10 volumes of ice cold lysis buffer (10 mM TRIS-HCl, pH 8.0, 10 mM MgCl2, 1% (v/v) Triton X-100, Complete™ Protease Inhibitor Cocktail [Roche, cat. No. 1836170], Phosphatase Inhibitor Cocktail I [Sigma, cat. No. P-2850], Phosphatase Inhibitor Cocktail II [Sigma cat. No. 5726], and benzonase [Novagen cat. No. 70664]). Lysates were clarified by centrifugation (100,000×g for 60 minutes at 4° C.) and the supernatants adjusted to 2 mg/mL with lysis buffer. ERK1 was immunoprecipitated using agarose-coupled and pan-anti-ERK1 (Santa Cruz Biotechnology cat. No. sc-93ac) antibodies. […]
For ITIS analysis, digested samples were spiked with heavy-atom labeled peptide standards and fractional phosphorylation was quantified by coupled liquid chromatography-tandem mass spectrometry (MS). […]
For analysis of pERK IHC in Colo205 xenografts, xenograft tumors were processed overnight in 70% through 100% graded ethanols, cleared in two changes of xylene, infiltrated with paraffin, and embedded into paraffin blocks. […] A single section from each animal and dose group was probed with anti-phospho p42/p44 MAPK antibody (pERK [1:100], CST; Cat no. 9101; Lot no. 16), counterstained with hematoxylin, and then analyzed microscopically using a Zeiss Axioplan 2 microscope. […]

RSK3, sequence (Q15349 whole entry, species assumed): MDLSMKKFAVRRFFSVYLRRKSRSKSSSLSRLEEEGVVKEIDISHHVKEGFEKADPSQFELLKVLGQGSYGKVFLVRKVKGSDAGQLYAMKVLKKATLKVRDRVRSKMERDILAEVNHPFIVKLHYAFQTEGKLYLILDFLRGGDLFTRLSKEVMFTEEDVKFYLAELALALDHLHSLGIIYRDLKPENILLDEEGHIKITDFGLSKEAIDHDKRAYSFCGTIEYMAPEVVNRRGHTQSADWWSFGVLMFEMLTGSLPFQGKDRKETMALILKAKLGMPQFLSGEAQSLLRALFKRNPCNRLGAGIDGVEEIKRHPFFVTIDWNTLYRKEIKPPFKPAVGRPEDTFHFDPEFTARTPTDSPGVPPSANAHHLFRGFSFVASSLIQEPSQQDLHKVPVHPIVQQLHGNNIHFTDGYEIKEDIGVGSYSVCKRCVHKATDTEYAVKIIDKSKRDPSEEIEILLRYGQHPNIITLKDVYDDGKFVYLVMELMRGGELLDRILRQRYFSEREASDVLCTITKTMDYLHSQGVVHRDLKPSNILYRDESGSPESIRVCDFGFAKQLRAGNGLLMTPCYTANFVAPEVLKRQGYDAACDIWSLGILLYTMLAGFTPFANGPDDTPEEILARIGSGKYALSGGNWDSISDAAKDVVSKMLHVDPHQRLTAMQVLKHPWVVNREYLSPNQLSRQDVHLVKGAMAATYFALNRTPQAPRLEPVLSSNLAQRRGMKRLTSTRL

CC(C)Nc1cc(-c2c[nH]c(C(=O)N[C@H](CO)c3cccc(Cl)c3)c2)c(Cl)cn1 [BVD-523]
Ki [1]: 450 nM | Ki [2]: 360 nM | Anemia, Any grade ([3]; human): 5 (19) n (%) | Anemia, Grade 1 or 2 ([3]; human): 3 (11) n (%) | Anemia, Grade 3 ([3]; human): 2^ (7) n (%) | Anorexia, Any grade ([3]; human): 6 (22) n (%) | Anorexia, Grade 1 or 2 ([3]; human): 6 (22) n (%) | Anorexia, Grade 3 ([3]; human): 0 n (%) | Blurry/dimmed vision, Any grade ([3]; human): 3 (11) n (%) | Blurry/dimmed vision, Grade 1 or 2 ([3]; human): 3 (11) n (%) | Blurry/dimmed vision, Grade 3 ([3]; human): 0 n (%) | Constipation, Any grade ([3]; human): 3 (11) n (%) | Constipation, Grade 1 or 2 ([3]; human): 3 (11) n (%) | Constipation, Grade 3 ([3]; human): 0 n (%) | Dehydration, Any grade ([3]; human): 5 (19) n (%) | Dehydration, Grade 1 or 2 ([3]; human): 3 (11) n (%) | Dehydration, Grade 3 ([3]; human): 2^ (7) n (%) | Diarrhea, Any grade ([3]; human): 16 (59) n (%) | Diarrhea, Grade 1 or 2 ([3]; human): 12 (44) n (%) | Diarrhea, Grade 3 ([3]; human): 4^ (15) n (%) | Fatigue, Any grade ([3]; human): 17 (63) n (%) | Fatigue, Grade 1 or 2 ([3]; human): 16 (59) n (%) | Fatigue, Grade 3 ([3]; human): 1^ (4) n (%) | Fever, Any grade ([3]; human): 3 (11) n (%) | Fever, Grade 1 or 2 ([3]; human): 3 (11) n (%) | Fever, Grade 3 ([3]; human): 0 n (%) | Grade 3 treatment-related diarrhea ([3]; human): 15% | Grade 3 treatment-related increased liver function tests ([3]; human): 11% | Increased LFTs (ALT and AST), Any grade ([3]; human): 4 (14) n (%) | Increased LFTs (ALT and AST), Grade 1 or 2 ([3]; human): 1 (4) n (%) | Increased LFTs (ALT and AST), Grade 3 ([3]; human): 3^ (11) n (%) | Increased creatinine, Any grade ([3]; human): 5 (19) n (%) | Increased creatinine, Grade 1 or 2 ([3]; human): 4 (15) n (%) | Increased creatinine, Grade 3 ([3]; human): 1^ (4) n (%) | MTD ([3]; human): 600 mg BID | Nausea, Any grade ([3]; human): 14 (52) n (%) | Nausea, Grade 1 or 2 ([3]; human): 14 (52) n (%) | Nausea, Grade 3 ([3]; human): 0 n (%) | Peripheral edema, Any grade ([3]; human): 4 (15) n (%) | Peripheral edema, Grade 1 or 2 ([3]; human): 4 (15) n (%) | Peripheral edema, Grade 3 ([3]; human): 0 n (%) | Pruritus, Any grade ([3]; human): 6 (22) n (%) | Pruritus, Grade 1 or 2 ([3]; human): 6 (22) n (%) | Pruritus, Grade 3 ([3]; human): 0 n (%) | RP2D ([3]; human): 600 mg BID | Rash, Any grade ([3]; human): 20 (74) n (%) | Rash, Grade 1 or 2 ([3]; human): 18 (67) n (%) | Rash, Grade 3 ([3]; human): 2^b (7) n (%) | Vomiting, Any grade ([3]; human): 8 (30) n (%) | Vomiting, Grade 1 or 2 ([3]; human): 7 (26) n (%) | Vomiting, Grade 3 ([3]; human): 1^ (4) n (%) | dose reductions resulting from AEs ([3]; human): 3 patients | patients with Grade 4 or 5 AEs possibly or definitely related ([3]; human): ^aNo patients experienced Grade 4 or 5 AEs that were possibly or definitely related to BVD-523 treatment. | patients with treatment-related AEs of any grade ([3]; human): 26 of 27 | patients with treatment-related Grade 3 events ([3]; human): 13 of 27 | related central serous retinopathy events ([3]; human): ^cOne Grade 1 event of related central serous retinopathy. | total serious AEs (SAEs) ([3]; human): 28 | treatment-related diarrhea ([3]; human): 52% | treatment-related fatigue ([3]; human): 59% | treatment-related nausea ([3]; human): 52% | treatment-related rash (predominately acneiform) ([3]; human): 70% | patients with serious AEs (SAEs) [3]: Fourteen | Ki [4]: 450 nM | Ki [5]: 1300 nM | durable complete responses [6]: 2 | time of maximal ERK1/2 phosphorylation post-dose [7]: 8 h | time of return of pERK1/2 to pre-dose levels [7]: ≤ 24 hours
